# Measurements taken from ChEMBL document CHEMBL3872273, “α-Pyrone derivatives, tetra/hexahydroxanthones, and cyclodepsipeptides from two freshwater fungi” (Bioorg Med Chem, 2017).
# Active and inactive are the calls of the source. No cut-off for these calls is given here.
# How the values were obtained:
# [1] = system: Mycolicibacterium smegmatis; assay: Antimicrobial activity against Mycobacterium smegmatis; assay type: functional
# Escherichia coli [2] = assay: Antimicrobial activity against Escherichia coli; assay type: functional
# Aspergillus niger = assay: Antimicrobial activity against Aspergillus niger; assay type: functional
# Staphylococcus aureus = assay: Antimicrobial activity against Staphylococcus aureus; assay type: functional
# Candida albicans = assay: Antimicrobial activity against Candida albicans; assay type: functional
# Pseudomonas aeruginosa = assay: Inhibition of Pseudomonas aeruginosa Peptidyl-tRNA hydrolase assessed as reduction in peptidyl-tRNA cleavage to free tRNA by gel electrophoresis
# Escherichia coli [3] = assay: Inhibition of Escherichia coli Peptidyl-tRNA hydrolase assessed as reduction in peptidyl-tRNA cleavage to free tRNA by gel electrophoresis
# [4] = system: Salmonella enterica subsp. enterica serovar Typhimurium; assay: (§1) Inhibition of Salmonella typhimurium Peptidyl-tRNA hydrolase assessed as reduction in peptidyl-tRNA cleavage to free tRNA by gel electrophoresis
# [5] = as §1; set-up: species or system Salmonella enterica subsp. enterica serovar Typhimurium
Compound,MIC [1] [mg/L],MIC (Escherichia coli [2]) [mg/L],MIC (Aspergillus niger) [mg/L],MIC (Staphylococcus aureus) [mg/L],MIC (Candida albicans) [mg/L],inhibition (Pseudomonas aeruginosa),inhibition (Escherichia coli [3]),inhibition [4],IC50 [5] [µM]
CCC[C@H]1Cc2oc(=O)cc(OC)c2[C@H](O)O1,> 75,75,> 75,> 75,> 75,–,–,–,–
CCCC(O)Cc1oc(=O)cc(OC)c1CO (racemic),> 55,> 55,> 55,> 55,> 55,–,–,–,–
COC(=O)[C@]12Oc3cccc(O)c3C(=O)[C@@H]1[C@H](O)C[C@@H](C)[C@@H]2O,> 100,> 100,> 100,> 100,100,Active,Active,Active,–
COc1cc(=O)oc2c1CO[C@@H](CO)C2,> 53,> 53,> 53,> 53,> 53,Active,Active,Active,–
CC[C@H](C)[C@@H]1NC(=O)[C@H](CCC(N)=O)N(C)C(=O)[C@@H](C(C)C)N(C)C(=O)CNC(=O)[C@@H]2CCCN2C(=O)[C@H](Cc2ccccc2)NC(=O)[C@H]([C@@H](C)CC)OC(=O)[C@H](CCC(=O)O)N(C)C(=O)[C@H](C(C)C)NC(=O)[C@@H]2CCCN2C1=O,> 125,> 125,> 125,> 125,> 125,–,–,–,–
COc1cc(=O)oc2c1CO[C@@H](C[C@@H](C)O)C2,–,–,–,–,–,Active,Active,Active,–
CC[C@H](C)[C@@H]1NC(=O)[C@H](CCC(N)=O)N(C)C(=O)[C@@H](C(C)C)N(C)C(=O)CNC(=O)[C@@H]2CCCN2C(=O)[C@H](Cc2ccccc2)NC(=O)[C@H]([C@@H](C)CC)OC(=O)[C@H](CCC(=O)O)N(C)C(=O)[C@H](C(C)C)NC(=O)[C@@H]2CCCCN2C1=O,> 98,> 98,> 98,> 98,> 98,–,–,–,–
COC(=O)[C@]12Oc3cccc(O)c3C(=O)C1=C(O)C[C@@H](C)[C@@H]2O,> 65,> 65,> 65,> 65,> 65,Active,Active,Active,–
COc1cc(=O)oc2c1CO[C@@H](CC(C)=O)C2 [PYRENOCINE K],> 25,> 25,> 25,> 25,> 25,–,–,–,–
CCCCCc1oc(=O)cc(OC)c1CO [PYRENOCINE M],> 140,> 140,> 140,> 140,> 140,–,–,–,–
CCC[C@@H](O)Cc1oc(=O)cc(OC)c1C,> 155,> 155,> 155,> 155,> 155,–,–,–,–
CCC[C@H]1Cc2oc(=O)cc(OC)c2CO1,> 203,> 203,203,> 203,> 203,Active,Active,Active,–
COC(=O)[C@]12Oc3ccc(-c4ccc5c(c4O)C(=O)C4=C(O)C[C@@H](C)[C@H](O)[C@@]4(C(=O)OC)O5)c(O)c3C(=O)C1=C(O)C[C@@H](C)[C@@H]2O [SECALONIC ACID A],> 75,> 75,> 75,> 75,> 75,Active,Active,–,1400
CCCCC(O)c1cc(OC)c(C)c(=O)o1 (racemic),> 35,> 35,> 35,> 35,> 35,–,–,–,–
COc1cc(=O)oc(CO)c1C,25,25,> 25,> 25,25,–,–,–,–
COC(=O)[C@]12Oc3cccc(O)c3C(=O)[C@@H]1[C@@H](O)C[C@@H](C)[C@@H]2O,> 75,> 75,> 75,> 75,> 75,–,–,–,–
CCC[C@H]1OCc2c(OC)cc(=O)oc2[C@H]1O,145,> 145,> 145,> 145,145,Active,Active,Active,–
